Measurements from patent publication US7060733B2, “Methods for treating pancreatitis with curcumin compounds and inhibitors of reactive oxygen species” (The Regents of the University of California, priority 2002, dated 2006).
“Also recorded” adds a separate entry of the source.

Tests used:
[1] = system: neutrophil infiltration of pancreatic tissue; assay: Neutrophil infiltration assay of pancreatic tissue; assay type: in vivo; details: rat
Experimental: Neutrophil infiltration of pancreatic tissue was examined using methods known in the art. See Gukovskaya A S, et al. (1997); Gukovskaya A S, et al. (2002); Pandol S J, et al. (1999); Sandoval D, et al. (1996); and Vaquero E, et al. (2001). The pancreas was cut into about 2 to about 3 mm pieces and fixed in 4% paraformaldehyde for 2 hours. The tissue was then frozen in liquid nitrogen. 8-μm-thick serial cryostat sections of pancreatic tissue from control samples and test samples from Examples 1 and 2 were cut and mounted on glass slides. The slides were placed in phosphate buffered saline (PBS) for 5 minutes. This was repeated twice. Then the slides were transferred into blocking buffer (PBS containing 5% (wt/vol) goat serum, 0.5% bovine serum albumin (wt/vol) and 0.1% gelatin(wt/vol) for 1 hour at room temperature. Then the slides incubated with FITC-conjugated rabbit anti-rat neutrophil antibody (Accurate, Westbury, N.Y.) (diluted 1:120 in the blocking buffer) for 3 hours at room temperature. The slides were the transferred into the blocking buffer, incubated for 5 minutes, and repeated 4 times. Finally, coverslips were mounted over the tissue samples on the slide with the addition of anti-fading medium. The number of infiltrating neutrophils was obtained by counting the neutrophils at 40× magnification in an average of 50 fields covering at least about 1,000 acinar cells. For each sample, neutrophil numbers were expressed as a percentage of acinar cells.

[2] = system: NF-κB and AP-1; details: various cell types and tissues; cited from earlier work
[3] = target: p38 MAP kinase (Homo sapiens, UniProt Q16539); details: various cell types and tissues; cited from earlier work
Chain of p38 MAP kinase (Q16539 whole entry): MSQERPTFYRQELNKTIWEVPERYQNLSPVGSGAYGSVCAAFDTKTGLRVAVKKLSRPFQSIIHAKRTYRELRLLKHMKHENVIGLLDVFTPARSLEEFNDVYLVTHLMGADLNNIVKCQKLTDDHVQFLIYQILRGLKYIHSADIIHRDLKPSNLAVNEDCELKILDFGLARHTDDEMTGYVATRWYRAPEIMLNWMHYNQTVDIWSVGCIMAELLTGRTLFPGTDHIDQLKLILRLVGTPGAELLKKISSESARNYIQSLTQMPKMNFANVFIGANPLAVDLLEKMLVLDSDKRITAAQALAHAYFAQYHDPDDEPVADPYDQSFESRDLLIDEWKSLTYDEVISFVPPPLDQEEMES

In the case of COc1cc(/C=C/C(=O)CC(=O)/C=C/c2ccc(O)c(OC)c2)ccc1O [curcumin], the “inhibition of neutrophil infiltration in the pancreas” value ([1]; cerulein pancreatitis) is reported as “greater than 50%”, the “neutrophil infiltration versus pancreatitis without curcumin” value ([1]; cerulein pancreatitis) is reported as “significantly lower; also recorded: significantly inhibited” and the “inhibition of neutrophil infiltration in the pancreas” value ([1]; ethanol/CCK pancreatitis) is reported as “greater than 50%”. The “neutrophil infiltration versus pancreatitis without curcumin” value ([1]; ethanol/CCK pancreatitis) was “significantly lower; also recorded: significantly inhibited”, the “activation of NF-κB and AP-1” value [2] was “inhibits” and the “effect on p38 MAP kinase” value [3] was “no effect”.
